Test results published in article PMC6769468, “Endogenous Neuropeptide Nocistatin Is a Direct Agonist of Acid-Sensing Ion Channels (ASIC1, ASIC2 and ASIC3)” (Biomolecules, 2019).
Ends that are not written are not given here.

Experiments:
[1] = tested on: canonical transient receptor potential cation (TRPC) channels; conditions: via unidentified G-coupled receptor(s), Gαq/11-phospholipase C-protein kinase C pathway; ref [31]; cited from earlier work
From the text: (§1) The nocistatin in mammalian is expressed as a precursor protein coding three neuropeptides (nocistatin, nociceptin, and Orphanin FQ2). […] Nocistatin is well represented in different parts of the brain and spinal cord. […] Nocistatin was studied in animal models as a prospective molecule together with opi ...

NIPSNAP1 = conditions: ref [32]; cited from earlier work
From the text: as §1

mice = conditions: ref [28]; cited from earlier work
From the text: as §1

[2] = ref [27]; cited from earlier work
From the text: as §1

mouse = conditions: cited from earlier work
From the text: as §1

rat ASIC1a = biological target: T1, rat ASIC1a (Rattus norvegicus, UniProt P55926); assay: ASIC1a steady-state desensitization (SSD) by rNS preconditioning; type: cell-based; conditions: preconditioning with 0.04 to 0.1 mM rNS, then 1 mM rNS stimulus; n = 4
T1 construct: expressed in transfected cells; host or cells: Xenopus laevis oocytes (injected)
T1 sequence (P55926 1-526): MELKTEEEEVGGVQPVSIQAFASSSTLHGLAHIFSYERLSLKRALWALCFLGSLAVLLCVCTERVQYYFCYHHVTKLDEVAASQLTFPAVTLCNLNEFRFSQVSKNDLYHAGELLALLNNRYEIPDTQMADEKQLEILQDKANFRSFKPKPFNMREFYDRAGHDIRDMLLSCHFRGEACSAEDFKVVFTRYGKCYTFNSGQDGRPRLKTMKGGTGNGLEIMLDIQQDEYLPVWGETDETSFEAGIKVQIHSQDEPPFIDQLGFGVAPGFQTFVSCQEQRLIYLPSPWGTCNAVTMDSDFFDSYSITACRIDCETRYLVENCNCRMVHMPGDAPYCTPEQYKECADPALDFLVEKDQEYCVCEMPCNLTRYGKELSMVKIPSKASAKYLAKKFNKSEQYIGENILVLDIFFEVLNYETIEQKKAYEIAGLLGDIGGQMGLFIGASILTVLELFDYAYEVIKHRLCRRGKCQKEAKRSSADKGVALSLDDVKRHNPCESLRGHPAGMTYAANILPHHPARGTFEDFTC
Experimental: Oocytes expressed rASIC1a, rASIC1b, rASIC2a, and rASIC3 homomeric channels were prepared as described. Injected oocytes were kept for two–three days at 19 °C and then for up to seven days at 15 °C in ND-96 medium supplemented with gentamycin (50 μg·mL^−1) and containing (in mM): 96 NaCl, 2 KCl, 1.8 CaCl2, 1 MgCl2, and 10 HEPES titrated to pH 7.4 with NaOH. Electrophysiological recordings were performed using the GeneClamp500 amplifier (Axon Instruments, Inverurie, UK) at a holding potential of -50 mV. The data were filtered at 20 Hz and digitized at 100 Hz using the L780 AD converter (L-Card, Moscow, Russia). Microelectrodes were filled with 3 M KCl. […]
Figure 2 Effects of nocistatin on rat ASIC1a channels. […] Calculated parameters of EC50 for non-discriminated sites, or EC501 for “cooperative” sites and EC502 for single site, are shown as a result of experimental data mathematical processing. The peak current amplitude is normalized to the maximum amplitude (Imax) calculated for each oocyte by individual fitting. […] Two independent dose-response curves were measured for the 1st (blue line) and the 2nd (green line) peak components of the current. Calculated parameters of IC50 are shown as a result of experimental data mathematical processing by F3(x) logistic equation (see Materials and Methods for detailed description). […]

In the case of “MPRVRSVVQARDAEPEADAEPVADEADEVEQKQLQ [rNS]”, the “Effect on TRPC channels” value [1] is listed as “opening of canonical transient receptor potential cation (TRPC) channels”, the “Binding to NIPSNAP1” value (NIPSNAP1) is listed as “nocistatin binding proteins” and the “Effect in elevated plus-maze test” value (mice) is listed as “produced anxiogenic-like actions”. The “Effect on scopolamine-induced impairment of learning and memory” value [2] was “prevented the disruption of learning and memory processes”, the “Effect on nociceptin-caused allodynia and thermal hyperalgesia” value (mouse; doses of 0.5–500 pg per mouse, ref [29]) was “eliminated allodynia and thermal hyperalgesia effects” and the “Effect in algogenic-induced nociceptive flexion test” value (mouse; i.pl. 0.01–1 pmol per mouse, ref [30]) was “induced pronociceptive responses”. The “Steady-state desensitization (SSD)” value (rat ASIC1a) was “does not -induce SSD”.
